This note sets out measurements from patent publication US20030229030A1, “Method of treating interleukin-6-mediated inflammatory diseases” (priority 2002, published 2003).

Where “and” joins values, the source holds several entries; their conditions need not be identical. Equal values may be shown once. Marks after values point to notes of the source that are not given here. Ends that are not written are not given here.

The test system of test [1] is IL-6 secretion from hCBMC. Briefly: IL-6 secretion from human cord blood-derived mast cells (hCBMC), ELISA. The class given is cell-based. The following applies: for secretion of IL-6 (FIG. 3): n=4. Here is the method: (§1) Human cord blood-derived mast cells (HCBMC) were grown from CD34+ progenitor mononuclear umbilical cells isolated from umbilical cord blood by positive selection of AC133 (CD 133+/CD34+high) cells by magnetic cell sorting (Miltenyi Biotec, Auburn, Calif.). CD34+ cells were then cultured in Isocove's Modified Dulbecco's Medium (1MDM) containing 100 ng/ml Stem Cell Factor (from Amgen, Thousand Oaks, Calif.) plus test components in 10% FBS at 37° C. in 5% CO2 balanced air. By 10 weeks, 95% of the cells in culture could be identified as mast cells by immuno-staining for tryptase. hCBMC were washed three times in PBS and resuspended in culture medium (1×10^5 cells/200 ul sample). Test substances, e.g., IL-1 were added and cells were incubated at 37° C. in 5% CO2 for six hours for dose-response experiments or for the indicated times in time-course experiments. IL-6 and tryptase were measured in cell-free supernatant fluids by ELISA (R&D Systems, Minneapolis, Minn.) and fluoroenzymeimmunoassay (Pharmacia, Uppsala, Sweden), respectively.
(§2) Dose-response of IL-6 and tryptase secretion from hCBMC and HMC-1 cells were tested after stimulation for six hours with indicated concentrations of IL-1 or other stimuli. Time-course of IL.6 production induced by 50 ng/ml of IL-1 a from CBMC or by 10 ng/ml IL-1 from HMC-1 cells could be tested.
The data in general represent means +/− standard error of the mean from 3 to 4 experiments done in duplicate for each cell type used.
(In general: An ELISA detects its analyte on a solid surface through an enzyme-linked reagent.)

Test [2] deals with IL-6 production from rat peritoneal macrophages. Nature of the test: IL-6 production from LPS-stimulated rat peritoneal macrophages. To be noted: rat macrophages stimulated by LPS; quercetin dihydrate 100 μM, 10 mins prior to stimulus, 6 hrs. In kind it is cell-based. The source says: (§3) In this experiment, the effect of quercetin on the production of IL-6 and TNF-a from rat peritoneal macrophages and human mast cells that are involved in inflammation was studied. [table]

For test [3], the system named is TNF-α production from rat peritoneal macrophages. Briefly: TNF-α production from LPS-stimulated rat peritoneal macrophages. The class given is cell-based. To be noted: rat macrophages stimulated by LPS; quercetin dihydrate 100 μM, 10 mins prior to stimulus, 6 hrs.
Excerpt: as §3

The test system of test [4] is TNF-α production from human mast cells (hCBMC). Nature of the test: TNF-α production from hCBMC stimulated by IgE and anti-IgE. In kind it is cell-based. To be noted: quercetin dihydrate 100 μM, 10 mins prior to stimulus, 6 hrs.
Excerpt: as §3

The test system of test [5] is IL-6 secretion from human mast cells. Nature of the test: IL-6 production and secretion from human mast cells, quercetin alone or with IL-1. The class given is cell-based. As for the experimental part:
as §1
In this experiment, the effects of quercetin, alone or together with IL-1, on the production and secretion of IL-6 from human mast cells was studied.

Test [6] relates to IL-6 secretion from HMC-1 cells. Nature of the test: IL-6 secretion from HMC-1 human leukemic mast cells. The class given is cell-based. To be noted: quercetin 10 μM, IL-10 2 ng/ml. As for the experimental part:
Human leukemic mast cells (HMC-1) was obtained from Dr. Butterfield (Mayo Clinic, Rochester, Minn.), and cultured in IMDM medium supplemented with 10% FBS, PBS and 2 μM alpha.thioglycerol. HCBMC or HMC-I cells 2×10^5/200 μl sample were stimulated in full culture medium as indicated.
as §2
The effect of IL-10 on HMC-1 leukemic cells producing IL-6, especially cells stimulated by IL-1 that induces selective release of IL-6, was studied alone or together with a flavonoid compound.

For test [7], the system named is tryptase secretion from hCBMC. Briefly: Tryptase secretion from hCBMC mast cell granules, fluoroenzymeimmunoassay. In kind it is cell-based, human. The following applies: stimulus alone: CRH 5 × 10^−5M, IL-1 50 ng/ml, anti-IgE 10 μg/ml. As for the experimental part: as §1
Dose-response of IL-6 and tryptase secretion from hCBMC and HMC-1 cells were tested after stimulation for six hours with indicated concentrations of IL-1 or other stimuli. Time-course of IL.6 production induced by 50 ng/ml of IL-1 a from CBMC or by 10 ng/ml IL-1 from HMC-1 cells could be tested. […]

Where [8] appears, read: hCBMC + anti-IgE, azelastine 1 μM, quercetin 10 μM.
[9] abbreviates: hCBMC, substance alone: anti-IgE, azelastine 1 μM, quercetin 10 μM.
Where [10] appears, read: IL-1 50 ng/ml + quercetin 10 μM.
Where [11] appears, read: IL-1 50 ng/ml + quercetin 100 μM.
The mark [12] stands for this setting: HMC-1, substance alone: IL-1 50 ng/ml.

For `CN1CCCC(n2nc(Cc3ccc(Cl)cc3)c3ccccc3c2=O)CC1` (centres unmarked) [Azelastine, reference compound], the “inhibition of IL-6 secretion from hCBMC” value in test [1] (azelastine at concentrations below 1 μM) is listed as “ineffective”. Also, the “IL-6 (pg/ml/5 × 105cells)” value in test [1] (setting [8]) turned out to be 30.6 pg/ml/5 × 105cells; in test [1] (setting [9]), 11.9 pg/ml/5 × 105cells. Besides, the “inhibition of IL-6 secretion from hCBMC (FIG. 4)” value in test [1] (hCBMC + anti-IgE, dose-dependent) is on record as “potent inhibitor”. In addition, the “IL-6 secretion (FIG. 4)” value in test [1] (hCBMC, azelastine 60 μM) is given as “below control levels”.
Take `O=c1c(O)c(-c2ccc(O)c(O)c2)oc2cc(O)cc(O)c12` [Quercetin, quercetin]: the “Inhibition (% of total) IL-6” value is on record as 96.3 % of total in test [2]; 95.8 % of total in test [1] (hCBMC stimulated by IgE and anti-IgE, quercetin dihydrate 100 μM, 10 mins prior to stimulus, 6 hrs). Also, the “Inhibition (% of total) TNF-α” value is on record as 88.3 % of total in test [3] and 78.3 % of total in test [4]. Further, the “IL-6 (pg/ml/5 × 105cells)” value in test [1] (setting [8]) is recorded as 21.4 pg/ml/5 × 105cells; in test [1] (setting [9]) it was 9.8 pg/ml/5 × 105cells. For the same molecule, the “Inhibition (% total)” value is 32.9 % total in test [1] (setting [8]), 32.7* % total in test [5] (setting [10]), 82.0* % total in test [5] (setting [11]) and 5.37 % total in test [6] (HMC-1 + IL-1 (50 ng/ml)). Also, the “secretion of IL-6 (FIG. 3)” value in test [1] (hCBMC + anti-IgE, three lower concentrations of quercetin (1, 0.1, 0.01 μM)) is “only slightly reduced”; in test [1] (hCBMC + anti-IgE, two highest concentrations of quercetin (100, 10 μM)), “greatly reduced”. For the same molecule, in test [1] (hCBMC, 0.1 mM quercetin 30 mins, then anti-IgE 6 hrs, replicated 6 times), the “secretion of IL-6 from mast cells stimulated by anti-IgE” value is listed as “profoundly inhibited”. Besides, the “IL-6 (pg/10^6 cells)” value in test [1] (hCBMC, quercetin 0.1 mM alone, no anti-IgE) is listed as 10.8 pg/10^6 cells; in test [1] (hCBMC, quercetin 0.1 mM for 10 mins prior to addition of anti-IgE), 50.5 pg/10^6 cells. For the same molecule, the “IL-6 (pg/ml/5 × 10^5 cells)” value was found to be 300.1 pg/ml/5 × 10^5 cells in test [5] (setting [10]), 150.4 pg/ml/5 × 10^5 cells in test [5] (setting [11]), 74.9 pg/ml/5 × 10^5 cells in test [5] (quercetin 10 μM alone) and 56.1 pg/ml/5 × 10^5 cells in test [5] (quercetin 100 μM alone). For the same molecule, the “IL-6 (pg/ml/10^5 cells)” value in test [6] (HMC-1 + IL-1 (50 ng/ml)) came out at 299.0 pg/ml/10^5 cells; in test [6] (setting [12]), 79.8 pg/ml/10^5 cells.
On to `O=c1c(O)c(-c2ccc(O)cc2O)oc2cc(O)cc(O)c12` [Morin, reference compound], for which, in test [1] (hCBMC + anti-IgE, morin (100-0.01 μM listed)), the “secretion of IL-6 (FIG. 3)” value is “only a small effect”.
Take “CRH: corticotropin-releasing hormone (SEEPPISLDLTFHLLREVLEMARAEQLAQQAHSNRKLMEII; ends and bridges not checked; UniProt P06850 154-194, looked up)”: the “IL-6 (pg/ml/5 × 10^6 cells)” value in test [1] (hCBMC, stimulus alone: CRH 5 × 10^−5M, IL-1 50 ng/ml, anti-IgE 10 μg/ml) is recorded as 33.3 +/− 3.5 pg/ml/5 × 10^6 cells. Further, in test [7], the Tryptase % total is 4.20 % total and 4.26 % total.

B1: IL-10: interleukin-10 (protein, UniProt P22301 19-178, looked up)
Interleukin-10: SPGQGTQSENSCTHFPGNLPNMLRDLRDAFSRVKTFFQMKDQLDNLLLKESLLEDFKGYLGCQALSEMIQFYLEEVMPQAENQDPDIKAHVNSLGENLKTLRLRLRRCHRFLPCENKSKAVEQVKNAFNKLQEKGIYKAMSEFDIFINYIEAYMTMKIRN
For the molecule B1, in test [6] (HMC-1 + IL-1 (50 ng/ml)), the “IL-6 (pg/ml/10^5 cells)” value is recorded as 275.9 pg/ml/10^5 cells and the “Inhibition (% total)” value was 31.32 % total. Besides, the “IL-6 (pg/ml/10^5 cells)” value in test [6] (setting [12]) was found to be 85.6 pg/ml/10^5 cells.
